Source: patent publication US5786332A, “Cytokine restraining agents and methods of use in pathologies and conditions associated with altered cytokine levels” (Trega Biosciences, Inc., priority 1995, dated 1998)

Tests used:
Type in all cases: in vivo
[1] = tested on: Harlan Sprague-Dawley rats; assay: Adult respiratory distress syndrome: LPS-induced PMN count in broncho-alveolar lavage; conditions: 100 μg/kg IP; LPS 5 mg/kg intratracheal; lavage at 6 hr
Description: These experiments were performed using a modification of the methods described by Ulich et al., Am. J. Pathol. 141:61-68 (1992) and by Wheelden et al., Lab. Animals 26:29-37 (1992), each of which is incorporated herein by reference. Male Harlan Sprague-Dawley rats were anesthetized using a mixture of 70 mg/kg ketamine and 6 mg/kg rompun injected IP. A 2-3 cm incision was made in the neck of each anesthetized rat and its trachea was exposed by blunt dissection of the surrounding soft tissue. The rats were suspended on a near vertical slab and intratracheal injections were performed by inserting into the exposed trachea, at a point 1 cm posterior to the larynx, a 25 G×1/2 inch needle attached to a 1 cc syringe.
Each rat received 0.5 ml/kg of saline or 0.5 ml/kg of 10 mg/ml (5 mg/kg) LPS endotoxin via slow intratracheal administration. Immediately following administration of the LPS endotoxin, rats were injected IP with 1 ml/kg of either saline (control) or saline containing various concentrations of EX-2 (treated). The rats were maintained in the elevated position for 1-2 min to facilitate distribution of the LPS and saline into the lung. The incisions were closed and the rats were allowed to recover. […]
neutrophils) in the broncho-alveolar lavage fluid were counted in the EX-2-treated rats and compared with the number in the control rats.

Balb/c mice = assay: Arachidonic acid-induced ear swelling; conditions: 100 μg/mouse IP 30 min before AA; 60 min after AA
Description: Experiments were performed using female Balb/c mice weighing 18-23 grams. Saline or 100 μg EX-2 or EX-3 was administered IP, 30 min prior to topical application of arachidonic acid (AA). A 10 μl pipet was used to apply 10 μl AA solution (100 mg/ml ethanol; Calbiochem-Novabiochem; San Diego Calif.) to the inner and outer surfaces of the right ear of each mouse. Ten μl ethanol, alone, was applied to the inner and outer surface of the left ear of each mouse.
Ear thickness was measured with a hand-held spring loaded caliper immediately before and 60 min after AA application. Increase in ear thickness was calculated by subtracting the change observed in the control ear from the change observed in AA-treated ear. The value for each group (saline and control) is the average of the swelling observed in the individual mice in each group. The percent reduction of swelling is based on the swelling observed in the saline control group.

Sprague-Dawley rats [2] = assay: Disuse deconditioning (tail suspension, 14 days); conditions: 1 or 5 μg/kg IP twice daily
Description: Adult male Sprague-Dawley rats (355-365 g) were used in this study. Animals were housed individually in standard rat cages and were acclimated on a treadmill for 4 days. The next day, a baseline tail bleed was performed, followed by a maximal treadmill stress test the day after. The day following the stress test, the animals were divided into the appropriate treatment and control groups and the animals were suspended by their tails in suspension cages, which simulates weightlessness and, therefore, deconditions the animals. Another group of control animals was placed in standard rat cages with grated flooring similar to that utilized in the suspension cages. All animals were housed one per cage and supplied with food and water ad libitum. Body weights and food consumptions were measured daily. Animals received twice daily IP injections of 1 μg/kg or 5 μg/kg body weight of EX-2 (treated), or 1 ml/kg body weight of saline (control). On day 10, all animals were stress tested on the treadmill until they reached exhaustion. Data on maximum VO2 and running time were collected and compared to pre-suspension results. On day 14, all animals were sacrificed, and blood, tissues, and organs were collected for further analysis. All procedures and tests were performed blind to avoid researcher subjectivity. Statistical significance (p<0.05) between groups was evaluated by ANOVA with Student-Newman-Keuls test for multiple comparisons. All data are reported as the mean ± standard error (SE).
All of the animals were subjected to the stress tests, which measured exercise time and maximal VO2. As well, levels of the oxidative enzyme soleus citrate synthase and tibia bone density were measured.
Soleus citrate synthase was attenuated by 50%.

Sprague-Dawley rats [3] = assay: Renal ischemia-reperfusion injury; conditions: I/R + EX-2 (50 or 500 μg/kg iv, not specified)
Description: A. Ischemia-Reperfusion Injury: These experiments were performed to determine if a peptide which has cytokine restraining properties, EX-2, can ameliorate the reperfusion-induced vasoconstriction and reduction in glomerular filtration rate that results from clamping of the renal artery. As a comparison, the NSAID ketorolac was utilized in the same model.
Sprague-Dawley rats (250-300 g) were anesthetized with Inactin® (120 mg/kg). After deep anesthesia was assured, the rats were cannulated in the trachea with polyethylene (PE) tubing (PE 240), jugular vein, femoral artery, bladder (PE 50 for previous 3 cannulations), and left ureter (stretched PE 50). Once cannulation was completed, a 2 cm flank incision above the left kidney was performed and the renal pelvis and vascular bundle were exposed. […]
Just prior to clamping, EX-2 (50 or 500 μg/kg), ketorolac (KETO, 1 mg/kg), or vehicle was administered intravenously (iv) After 1 hr of clamping (ischemia), the clamp was gently removed with care taken to avoid damaging either the renal artery or nerves. […] After 60 min of reperfusion, glomerular filtration rate (GFR), renal plasma flow (RPF) and renal vascular resistance (RVR) were assessed in two 30 min collection periods. […] Contralateral renal function was utilized to determine the stability of the rat's renal function during the measured period.

Sprague-Dawley rats [4] = assay: Streptozotocin-induced diabetes, plasma glucose; conditions: STZ 65 mg/kg iv; EX-2 150 μg/kg every 8 hr for 72 hr
Description: B. Induced Diabetes: Male Sprague-Dawley rats were given 65 mg/kg of streptozotocin (STZ) intravenously through the tall vein. Rats were divided into two groups. The first group was administered EX-2, 150 μg/kg every 8 hr for 72 hr and the second group was a control. Blood samples were withdrawn under ether anesthesia every 8 hr for the first 72 hr, then every 12 hr or 24 hr until the end of the observation period. Plasma samples were assayed for glucose using a glucose assay kit (Trinder, Sigma Chemical Co.). As shown in Table VI below EX-2 effect a 72% reduction in blood glucose levels.

Ac-Nle-Gln-His-(D)Phe-Arg-(D)Trp-Gly-NH2 [EX-2]
Reduction in LPS-induced PMN Count [1]: 58%
Reduction in arachidonic acid-induced Ear Swelling (Balb/c mice): 72%
% Attenuation of suspension-induced decrease: Soleus Citrate Synthase (Sprague-Dawley rats [2]; day 14): 50%
% Attenuation of suspension-induced decrease: Tibia Bone Density (Sprague-Dawley rats [2]; day 14): 50%
% Attenuation of suspension-induced decrease: Exercise Time (Sprague-Dawley rats [2]; treadmill day 10): 44%
% Attenuation of suspension-induced decrease: Maximal VO2 (Sprague-Dawley rats [2]; treadmill day 10): 80%
GFR (glomerular filtration rate) (Sprague-Dawley rats [3]; 1 hr clamp, after 60 min reperfusion, I/R + PBS 0.2 ± 0.1): 0.5 ± 0.1 ml/mm
RPF (renal plasma flow) (Sprague-Dawley rats [3]; I/R + PBS 0.8 ± 0.2): 2.3 ± 0.3 ml/mm
% Reduction of induced increase in Blood Glucose (mg/dl), STZ Diabetes (Sprague-Dawley rats [4]): 72%
